For the experiment, the system named is Trypanosoma rhodesiense. The experiment is described as follows: In vivo trypanocidal activity in infected mice (protocol based on Rane et al.). Details: Activity at dosage, value in parentheses (increase in survival): unit not given here. Particulars: for Activity at dosage (C = Cures) / Activity at dosage, value in parentheses (increase in survival): peritoneal (Table 2). As for the experimental part: The compounds of the present invention were evaluated biologically in vivo with groups of 5 mice at various dose levels. Unless otherwise indicated, the data are for subcutaneous administration. Dose levels marked with an asterisk are for peritoneal administration in a HEC+T medium. In addition, Table 2 present results of peritoneal administration with substituted quanylhydrazones. The biological evaluation was done according to a standard protocol based on the method described by Rane et al., Amer. J. Trop. Med Hyg. 25:395 (1976). […]

Setting [1] is: 6.6* mg/kg, peritoneal in HEC+T medium (Table I).

For the compound `Cc1ccc2n(c1)cc(-c1ccc(C=NNC(=N)N)cc1)[n+]2C` [BK13078], the Increase in survival (0.21 mg/kg, subcutaneous) was found to be 5.3 days; the Increase in survival (0.42 mg/kg, subcutaneous) came to 7.0 days; the Increase in survival (1.66 mg/kg, subcutaneous) worked out at 11.0 days; the Increase in survival (3.3 mg/kg, subcutaneous) turned out to be 1.0 days; the Increase in survival under setting [1] is listed as 7.0 days. The “Trypanocidal activity, cures” value (0.21 mg/kg, subcutaneous) is listed as 2/5; the “Trypanocidal activity, cures” value (0.42 mg/kg, subcutaneous) is recorded as 4/5; the “Trypanocidal activity, cures” value (0.83 mg/kg, subcutaneous) was 10/10; the “Trypanocidal activity, cures” value (1.66 mg/kg, subcutaneous) was 9/10; the “Trypanocidal activity, cures” value (3.33 mg/kg, subcutaneous) is listed as 5/5; the “Trypanocidal activity, cures” value (6.65 mg/kg, subcutaneous) is 5/5. For the same compound, the “Trypanocidal activity, cures” value reads like this: (13.3 mg/kg, subcutaneous) 10/10; (26.5 mg/kg, subcutaneous) 15/15; under setting [1], 3/5; (13* mg/kg, peritoneal in HEC+T medium (Table I)) 10/10; (26* mg/kg, peritoneal in HEC+T medium (Table I)) 13/15; (53* mg/kg, peritoneal in HEC+T medium (Table I)) 10/10. In addition, the “Trypanocidal activity, cures” value (106* mg/kg, peritoneal in HEC+T medium (Table I)) is 10/10 and the “Trypanocidal activity, cures” value (212* mg/kg, peritoneal in HEC+T medium (Table I)) is recorded as 5/5. Besides, the “Activity at dosage (C = Cures)” value is, setting by setting: (0.8 mg/kg) “INAC”; (1.7 mg/kg) “INAC”. For the same compound, the “Activity at dosage, value in parentheses (increase in survival)” value runs as follows: (3.3 mg/kg) 1.0; (6.7 mg/kg) 7.0; (26 mg/kg) 10.6; (424 mg/kg) 12.5.
Take `Cc1ccc2n(c1)cc(-c1ccc(C(N)=NO)cc1)[n+]2C` [BK13087]: under “53 mg/kg, subcutaneous”, the Increase in survival is on record as 2.3 days and the “Trypanocidal activity, cures” value is 2/5.
For `C[n+]1c(-c2ccc(C(=N)N)cc2)cn2ccccc21` [BK16471], the Increase in survival (13.3 mg/kg, subcutaneous) is recorded as 3.2 days. In addition, the “Trypanocidal activity, cures” value runs as follows: (13.3 mg/kg, subcutaneous) 2/10; (26.5 mg/kg, subcutaneous) 10/10; (53 mg/kg, subcutaneous) 5/5.
As to `C[n+]1c(-c2ccc(C(N)=NO)cc2)cn2ccsc21` [BK16499], where the note is “26 mg/kg, subcutaneous”, the Increase in survival came to 2.7 days and the “Trypanocidal activity, cures” value is recorded as 2/10. Where the note is “53 mg/kg, subcutaneous”, the Increase in survival came to 4.7 days and the “Trypanocidal activity, cures” value is on record as 2/10.
With `C[n+]1c(-c2ccc(C(=N)N)cc2)cn2ccsc21` [BK21874], the Increase in survival (26.5 mg/kg, subcutaneous) turned out to be 3.6 days; the Increase in survival (53 mg/kg, subcutaneous) is reported as 2.5 days; the Increase in survival (106 mg/kg, subcutaneous) amounted to 12.9 days. In addition, the “Trypanocidal activity, cures” value (26.5 mg/kg, subcutaneous) was 1/10; the “Trypanocidal activity, cures” value (53 mg/kg, subcutaneous) is given as 2/5; the “Trypanocidal activity, cures” value (106 mg/kg, subcutaneous) is given as 9/10; the “Trypanocidal activity, cures” value (212 mg/kg, subcutaneous) is 5/5.
For `C[n+]1c(-c2ccc(C=NNC(=N)N)cc2)cn2ccsc21` [BK21909], for the setting “13.3 mg/kg, subcutaneous”, the “Trypanocidal activity, cures” value is 5/5.
In the case of `C[n+]1c(-c2ccc(C=NNC(N)=O)cc2)cn2ccsc21` [BK21918], the Increase in survival reads like this: (26.5 mg/kg, subcutaneous) 4.8 days; (53 mg/kg, subcutaneous) 4.5 days.
As to `CCN(CC)CCNC(=N)c1ccc(-c2cn3ccccc3[n+]2C)cc1` [BK23001], where the note is “13.3 mg/kg, subcutaneous”, the Increase in survival is 6.6 days.
Take `Cn1cc(-c2ccc(C=NNC(N)=O)cc2)[n+](C)c1` [BK23994]: for the setting “424 mg/kg, subcutaneous”, the Increase in survival came to 5.8 days.
As for `C=CC[n+]1c(-c2ccc(C=NNc3ncn[nH]3)cc2)cn2ccccc21` [BK24017], the Increase in survival reads like this: (26 mg/kg, subcutaneous) 2.3 days; (53 mg/kg, subcutaneous) 4.6 days. The “Trypanocidal activity, cures” value (26 mg/kg, subcutaneous) is on record as 4/10.
Take `C[n+]1c(-c2ccc(-c3n[nH]c(N)n3)cc2)cn2ccsc21` [BK42720]: the “Trypanocidal activity, cures” value (26.5 mg/kg, subcutaneous) was 5/5.
Regarding `C[n+]1c(-c2ccc(C(=N)N)cc2)cn2cc(C(=N)N)ccc21` [BK42748], for the setting “26.5 mg/kg, subcutaneous”, the Increase in survival is recorded as 2.3 days and the “Trypanocidal activity, cures” value is given as 2/5. For the setting “53 mg/kg, subcutaneous”, the Increase in survival is 3.0 days and the “Trypanocidal activity, cures” value is given as 2/5.
For `C[n+]1c(-c2ccc(C(=N)N)cc2)c([N+](=O)[O-])n2ccccc21` [BK42757], where the note is “53 mg/kg, subcutaneous”, the Increase in survival was found to be 2.5 days and the “Trypanocidal activity, cures” value is on record as 1/5. In addition, where the note is “106 mg/kg, subcutaneous”, the Increase in survival was 3.0 days and the “Trypanocidal activity, cures” value is given as 1/5.

The record behind these values is patent US5204352A, “Compounds exhibiting anti-parasitic activity and a method for their use” (The United States of America as represented by the …, priority 1987, dated 1993).
